The supplement of paper PMC10307832

What was measured:
Experiment in all cases: relative viability (nuclei count vs DMSO), 5 days (fraction); higher = more cells survive
[1] = compound: CC1=CC=C(C=C1)C(=O)CN2C3=C(CCCC3)SC2=N [Pifithrin_alpha] + C[C@@H](Oc1cc(-c2cnn(C3CCNCC3)c2)cnc1N)c1c(Cl)ccc(F)c1Cl [Crizotinib] (partner 1 µM)
Outline: (§1)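 Relative viability equals treated-well nuclei counts divided by vehicle-well nuclei counts. Counts came from 4× images of lung cancer cell lines grown in 1536-well plates for 5 days after pin-tool dosing on the day after seeding. Dosing used one drug alone or a fixed anchor-drug dose plus five library-drug doses (not always all listed) in √10 steps, and values are medians of duplicate plates.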

[2] = compound: CC1=CC=C(C=C1)C(=O)CN2C3=C(CCCC3)SC2=N [Pifithrin_alpha] + NC(=O)Nc1cc(-c2cccc(F)c2)sc1C(=O)N[C@H]1CCCNC1 [AZD7762] (partner 0.2 µM)
Outline: as §1

[3] = compound: CNC(=O)c1ccccc1Sc1ccc2c(/C=C/c3ccccn3)n[nH]c2c1 [Axitinib] + CS(=O)(=O)CCNCc1ccc(-c2ccc3ncnc(Nc4ccc(OCc5cccc(F)c5)c(Cl)c4)c3c2)o1 [Lapatinib] (partner 2 µM)
Outline: as §1

[4] = compound: CC1=CC=C(C=C1)C(=O)CN2C3=C(CCCC3)SC2=N [Pifithrin_alpha] + CCNC(=O)c1noc(-c2cc(C(C)C)c(O)cc2O)c1-c1ccc(CN2CCOCC2)cc1 [Luminespib] (partner 0.01 µM)
Outline: as §1

Cell Line | relative viability ([1]; first compound 1 µM) | relative viability ([1]; first compound 3.162 µM) | relative viability ([1]; first compound 10 µM) | relative viability ([1]; first compound 31.62 µM) | relative viability ([1]; first compound 100 µM) | relative viability ([2]; first compound 1 µM) | relative viability ([2]; first compound 3.162 µM) | relative viability ([2]; first compound 10 µM) | relative viability ([2]; first compound 31.62 µM) | relative viability ([2]; first compound 100 µM) | relative viability ([3]; first compound 0.005 µM) | relative viability ([3]; first compound 0.01581 µM) | relative viability ([3]; first compound 0.05 µM) | relative viability ([3]; first compound 0.1581 µM) | relative viability ([3]; first compound 0.5 µM) | relative viability ([4]; first compound 1 µM) | relative viability ([4]; first compound 3.162 µM) | relative viability ([4]; first compound 10 µM) | relative viability ([4]; first compound 100 µM) | relative viability ([4]; first compound 31.62 µM)
NCI-H2087 | 0.95 | 0.796 | 0.818 | 0.706 | 0.895 | 1.4 | 1.32 | 1.28 | 1.03 | 1.26 | 1 | 1.26 | 0.947 | 0.864 | 1.2 | 0.169 | 0.172 | 0.153 | 0.135 | 
NCI-H2170 | 1.3 | 1.32 | 1.24 | 0.96 | 1.19 | 0.899 | 0.91 | 0.733 | 0.613 | 0.783 | 0.269 | 0.257 | 0.277 | 0.256 | 0.257 | 0.849 | 0.53 | 0.742 | 0.705 | 0.542
LOU-NH91 | 0.704 | 0.722 | 0.748 | 0.689 | 0.654 | 0.625 | 0.755 | 0.683 | 0.589 | 0.604 | 0.839 | 0.789 | 0.836 | 0.711 | 0.705 | 0.322 | 0.261 | 0.308 | 0.296 | 0.315
NCI-H647 | 0.838 | 1.03 | 0.927 |  | 0.605 |  | 0.368 | 0.307 | 0.361 | 0.287 | 1.07 | 1.09 | 1.29 | 1.09 | 1.41 | 0.356 | 0.26 | 0.157 | 0.177 | 0.103
NCI-H1915 | 0.867 | 0.979 | 0.912 |  | 1.25 | 0.682 | 0.694 | 0.647 |  | 0.656 | 0.994 | 0.99 | 0.994 | 0.922 | 1 | 0.972 | 1.25 |  | 1.08 | 
NCI-H1944 | 1.13 | 1.18 | 0.866 |  | 0.958 | 0.514 | 0.574 | 0.563 | 0.529 | 0.468 | 0.86 | 0.802 | 0.907 | 0.827 | 0.68 | 0.694 | 0.633 | 0.588 | 0.504 | 0.42
NCI-H1792 | 0.869 | 0.821 | 0.798 | 0.612 | 0.573 | 0.656 | 0.508 | 0.453 |  | 0.494 | 0.921 | 0.834 | 1.01 | 0.876 | 0.653 | 0.323 | 0.666 | 0.284 | 0.271 | 0.219
HARA | 1.26 | 1.11 | 1.19 | 0.791 | 1.24 | 0.3 | 0.329 | 0.219 | 0.23 | 0.209 | 0.63 | 0.593 | 0.718 | 0.621 | 0.602 |  | 0.899 | 0.792 | 0.481 | 
NCI-H2347 | 0.647 | 0.868 | 0.696 | 0.55 | 0.643 | 0.84 | 0.733 | 0.738 | 0.756 | 0.86 | 0.979 | 0.971 | 0.966 | 1.04 | 0.922 | 0.921 | 0.541 | 0.392 | 0.254 | 0.288
